Measurements from patent publication US6166290A, “Glutathione-S-conjugate transport in plants” (The Trustees of the University of Pennsylvania, priority 1997, dated 2000).

Columns and labels:
[1] = target: T1, YCF1 (vacuolar membrane vesicles purified from DTY165 cells) (Saccharomyces cerevisiae, UniProt P39109); test: [3H]DNP-GS uptake by vacuolar membrane vesicles purified from DTY165 cells; format: biochemical
T1 construct: endogenous in cells; host or cells: S. cerevisiae DTY165 (wild type YCF1), vacuolar membrane vesicles
Method in brief: (§1)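 ATP-dependent [3H]DNP-GS (66.2 μM) transport measured by filtration and scintillation counting of Ficoll-purified yeast vacuolar vesicles (DTY165 wild type; DTY167 ycf1Δ), 1–60 min at 25 °C in sorbitol/Tris-Mes pH 8.0 with 3 mM ATP, 3 mM MgSO4 and gramicidin-D. Nonenergized uptake without ATP/Mg2+.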

[2] = target: T2, AtMRP1 (Arabidopsis thaliana, UniProt Q9C8G9); test: AtMRP1-dependent uptake by membrane vesicles from pYES3-AtMRP1-transformed DTY168 cells; format: biochemical; details: MgATP-dependent, uncoupler-insensitive
T2 construct: S. cerevisiae DTY168 (ycf1 null) vacuolar-enriched membrane vesicles
Procedure: S. cerevisiae strain DTY168 (MATα his6, leu2-3, -112, ura3-52 ycf1::hisG) was transformed with pYES3-AtMRP1 or empty vector lacking the AtMRP1 insert (pYES3) by the LiOAc/PEG method (Giest et al., 1991, Yeast 7:253-263) and selected for uracil prototrophy by plating on AHC medium containing tryptophan (Kim et al., 1994, supra).
For the preparation of membrane vesicles, 15 ml volumes of stationary phase cultures of the transformants were diluted into 1 L of fresh AHC medium and grown to an OD600 nm of about 1.2. Membrane vesicles were purified as described herein and in Kim et al. (1995, supra).
[…] μl reaction volumes containing 3 mM ATP, 3 mM MgSO4, 5 μM gramicidin-D, 10 mM creatine phosphate, 16 units/ml creatine kinase, 50 mM KCl, 1 mg/ml BSA, 400 mM sorbitol, 25 mM Tris-Mes ([…]).
(§2) Cells were grown and vacuolar membrane-enriched vesicles were prepared as described (Kim et al., 1995, J Biol. Chem. 270:2630-2635-). […] Uptake was terminated by the addition of 1 ml ice-cold wash medium (400 mM sorbitol/3 mM Tris-Mes, pH 8.0) and vacuum filtration of the suspension through prewetted Millipore HA cellulose nitrate filters (pore size 0.45 μm). The filters were rinsed twice with wash medium, and the retained radioactivity was determined by liquid scintillation counting. Nonenergized uptake was estimated by the same procedure except that ATP was omitted from the uptake medium.

[3] = tested on: barley vacuoles; details: cited from earlier work
[4] = tested on: vacuolar membrane vesicles purified from DTY167 cells (ycf1Δ mutant); format: biochemical, Saccharomyces cerevisiae; details: 5 μM gramicidin D, GSH, GSSG 1 mM, GS-conjugates 100 μM
Method in brief: as §1

[5] = target: T3, AtMRP2 (Arabidopsis thaliana, UniProt Q42093); test: AtMRP2-dependent uptake by membrane vesicles from pYES3-AtMRP2-transformed DTY168 cells; format: biochemical; details: MgATP-dependent, uncoupler-insensitive
T3 construct: S. cerevisiae DTY168 (ycf1 null) vacuolar-enriched membrane vesicles
Procedure: as §2
Membranes from DTY168/pYES3-AtMRP2 cells were incubated for 10 minutes in standard uptake medium containing 61.3 μM [^3 H]DNP-GS after which time 200 mM glucose and 50 units/ml hexokinase (Type F-300 from baker's yeast) were added. […] Control samples were treated identically except that no additions were made after the initial 10 minute incubation period.

T1 sequence (P39109 whole entry): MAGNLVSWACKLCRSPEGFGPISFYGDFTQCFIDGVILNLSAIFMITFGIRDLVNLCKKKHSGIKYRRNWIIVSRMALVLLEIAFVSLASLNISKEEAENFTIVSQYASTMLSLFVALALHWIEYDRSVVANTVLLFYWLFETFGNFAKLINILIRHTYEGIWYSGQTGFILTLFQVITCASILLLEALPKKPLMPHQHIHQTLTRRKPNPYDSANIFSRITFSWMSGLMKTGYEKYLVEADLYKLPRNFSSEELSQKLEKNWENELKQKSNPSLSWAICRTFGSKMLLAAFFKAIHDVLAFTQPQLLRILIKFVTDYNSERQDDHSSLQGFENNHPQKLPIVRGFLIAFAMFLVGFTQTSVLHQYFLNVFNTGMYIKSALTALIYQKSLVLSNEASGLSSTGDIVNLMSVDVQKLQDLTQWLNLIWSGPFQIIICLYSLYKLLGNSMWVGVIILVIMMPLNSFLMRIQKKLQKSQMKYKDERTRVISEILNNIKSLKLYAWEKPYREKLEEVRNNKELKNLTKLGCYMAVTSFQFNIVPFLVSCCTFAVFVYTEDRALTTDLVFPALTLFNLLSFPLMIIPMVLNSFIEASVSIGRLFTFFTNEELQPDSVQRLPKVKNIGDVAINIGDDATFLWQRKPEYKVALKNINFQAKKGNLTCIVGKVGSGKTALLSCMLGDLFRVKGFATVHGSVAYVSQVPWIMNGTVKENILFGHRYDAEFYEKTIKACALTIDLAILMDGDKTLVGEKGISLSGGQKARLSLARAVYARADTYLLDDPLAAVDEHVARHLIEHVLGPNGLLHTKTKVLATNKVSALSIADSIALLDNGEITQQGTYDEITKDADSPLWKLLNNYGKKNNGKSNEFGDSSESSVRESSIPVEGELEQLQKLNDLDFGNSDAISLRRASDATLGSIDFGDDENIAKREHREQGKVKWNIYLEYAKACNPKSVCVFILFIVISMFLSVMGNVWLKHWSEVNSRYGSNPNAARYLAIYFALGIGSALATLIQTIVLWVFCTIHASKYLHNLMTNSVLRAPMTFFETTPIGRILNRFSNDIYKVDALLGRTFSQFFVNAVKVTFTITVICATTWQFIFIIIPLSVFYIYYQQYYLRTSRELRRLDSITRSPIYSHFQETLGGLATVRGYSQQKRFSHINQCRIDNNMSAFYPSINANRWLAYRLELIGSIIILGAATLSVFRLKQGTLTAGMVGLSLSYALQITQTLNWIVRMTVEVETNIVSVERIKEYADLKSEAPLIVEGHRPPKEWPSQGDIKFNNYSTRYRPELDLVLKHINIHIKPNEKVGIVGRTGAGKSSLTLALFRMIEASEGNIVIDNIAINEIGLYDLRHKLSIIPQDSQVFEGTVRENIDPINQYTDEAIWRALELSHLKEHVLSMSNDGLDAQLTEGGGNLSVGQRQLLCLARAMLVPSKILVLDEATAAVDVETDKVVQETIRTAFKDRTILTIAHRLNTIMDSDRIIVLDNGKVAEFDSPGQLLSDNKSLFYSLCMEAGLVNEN
T3 sequence (Q42093 whole entry): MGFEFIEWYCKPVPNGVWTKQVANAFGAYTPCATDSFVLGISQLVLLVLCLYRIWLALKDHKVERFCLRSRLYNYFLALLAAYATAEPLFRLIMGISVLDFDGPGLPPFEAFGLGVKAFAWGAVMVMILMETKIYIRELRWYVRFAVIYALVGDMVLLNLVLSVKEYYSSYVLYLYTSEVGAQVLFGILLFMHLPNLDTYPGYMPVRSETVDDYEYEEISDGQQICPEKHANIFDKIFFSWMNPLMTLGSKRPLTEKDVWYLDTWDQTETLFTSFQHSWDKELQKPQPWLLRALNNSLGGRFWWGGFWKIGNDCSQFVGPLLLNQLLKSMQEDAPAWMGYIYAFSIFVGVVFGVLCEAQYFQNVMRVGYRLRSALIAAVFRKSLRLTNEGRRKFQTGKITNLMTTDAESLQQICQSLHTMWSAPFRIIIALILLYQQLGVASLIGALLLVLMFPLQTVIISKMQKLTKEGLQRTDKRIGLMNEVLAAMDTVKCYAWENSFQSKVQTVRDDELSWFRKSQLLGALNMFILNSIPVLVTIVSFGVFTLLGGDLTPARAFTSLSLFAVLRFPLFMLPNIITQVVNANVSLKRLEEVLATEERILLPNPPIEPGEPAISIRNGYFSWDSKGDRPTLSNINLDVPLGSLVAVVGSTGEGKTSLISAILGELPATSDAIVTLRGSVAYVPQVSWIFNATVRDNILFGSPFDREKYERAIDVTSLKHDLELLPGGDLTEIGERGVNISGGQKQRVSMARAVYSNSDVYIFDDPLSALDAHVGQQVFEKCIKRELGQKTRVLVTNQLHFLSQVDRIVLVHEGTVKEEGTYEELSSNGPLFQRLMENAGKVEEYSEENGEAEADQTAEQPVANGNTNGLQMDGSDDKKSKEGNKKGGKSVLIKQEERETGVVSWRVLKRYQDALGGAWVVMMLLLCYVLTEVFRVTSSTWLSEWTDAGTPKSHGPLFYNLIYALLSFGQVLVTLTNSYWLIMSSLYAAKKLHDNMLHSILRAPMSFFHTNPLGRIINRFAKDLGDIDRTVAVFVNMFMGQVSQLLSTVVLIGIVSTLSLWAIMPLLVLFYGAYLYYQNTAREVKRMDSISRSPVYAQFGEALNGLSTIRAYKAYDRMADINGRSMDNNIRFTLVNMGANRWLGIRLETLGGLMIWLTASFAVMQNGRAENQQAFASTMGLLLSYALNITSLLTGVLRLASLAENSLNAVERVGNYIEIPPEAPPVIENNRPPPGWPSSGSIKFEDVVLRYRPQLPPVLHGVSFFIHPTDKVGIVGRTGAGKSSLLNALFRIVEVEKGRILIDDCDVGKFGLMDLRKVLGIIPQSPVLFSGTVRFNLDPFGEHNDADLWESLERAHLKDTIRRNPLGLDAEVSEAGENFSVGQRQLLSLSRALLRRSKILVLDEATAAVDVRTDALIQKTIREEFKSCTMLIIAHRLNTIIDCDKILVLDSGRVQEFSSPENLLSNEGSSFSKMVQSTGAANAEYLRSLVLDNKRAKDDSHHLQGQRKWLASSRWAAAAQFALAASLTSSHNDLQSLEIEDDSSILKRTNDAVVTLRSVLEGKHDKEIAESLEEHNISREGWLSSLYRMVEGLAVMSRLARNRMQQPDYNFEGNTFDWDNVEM
T2 sequence (Q9C8G9 whole entry): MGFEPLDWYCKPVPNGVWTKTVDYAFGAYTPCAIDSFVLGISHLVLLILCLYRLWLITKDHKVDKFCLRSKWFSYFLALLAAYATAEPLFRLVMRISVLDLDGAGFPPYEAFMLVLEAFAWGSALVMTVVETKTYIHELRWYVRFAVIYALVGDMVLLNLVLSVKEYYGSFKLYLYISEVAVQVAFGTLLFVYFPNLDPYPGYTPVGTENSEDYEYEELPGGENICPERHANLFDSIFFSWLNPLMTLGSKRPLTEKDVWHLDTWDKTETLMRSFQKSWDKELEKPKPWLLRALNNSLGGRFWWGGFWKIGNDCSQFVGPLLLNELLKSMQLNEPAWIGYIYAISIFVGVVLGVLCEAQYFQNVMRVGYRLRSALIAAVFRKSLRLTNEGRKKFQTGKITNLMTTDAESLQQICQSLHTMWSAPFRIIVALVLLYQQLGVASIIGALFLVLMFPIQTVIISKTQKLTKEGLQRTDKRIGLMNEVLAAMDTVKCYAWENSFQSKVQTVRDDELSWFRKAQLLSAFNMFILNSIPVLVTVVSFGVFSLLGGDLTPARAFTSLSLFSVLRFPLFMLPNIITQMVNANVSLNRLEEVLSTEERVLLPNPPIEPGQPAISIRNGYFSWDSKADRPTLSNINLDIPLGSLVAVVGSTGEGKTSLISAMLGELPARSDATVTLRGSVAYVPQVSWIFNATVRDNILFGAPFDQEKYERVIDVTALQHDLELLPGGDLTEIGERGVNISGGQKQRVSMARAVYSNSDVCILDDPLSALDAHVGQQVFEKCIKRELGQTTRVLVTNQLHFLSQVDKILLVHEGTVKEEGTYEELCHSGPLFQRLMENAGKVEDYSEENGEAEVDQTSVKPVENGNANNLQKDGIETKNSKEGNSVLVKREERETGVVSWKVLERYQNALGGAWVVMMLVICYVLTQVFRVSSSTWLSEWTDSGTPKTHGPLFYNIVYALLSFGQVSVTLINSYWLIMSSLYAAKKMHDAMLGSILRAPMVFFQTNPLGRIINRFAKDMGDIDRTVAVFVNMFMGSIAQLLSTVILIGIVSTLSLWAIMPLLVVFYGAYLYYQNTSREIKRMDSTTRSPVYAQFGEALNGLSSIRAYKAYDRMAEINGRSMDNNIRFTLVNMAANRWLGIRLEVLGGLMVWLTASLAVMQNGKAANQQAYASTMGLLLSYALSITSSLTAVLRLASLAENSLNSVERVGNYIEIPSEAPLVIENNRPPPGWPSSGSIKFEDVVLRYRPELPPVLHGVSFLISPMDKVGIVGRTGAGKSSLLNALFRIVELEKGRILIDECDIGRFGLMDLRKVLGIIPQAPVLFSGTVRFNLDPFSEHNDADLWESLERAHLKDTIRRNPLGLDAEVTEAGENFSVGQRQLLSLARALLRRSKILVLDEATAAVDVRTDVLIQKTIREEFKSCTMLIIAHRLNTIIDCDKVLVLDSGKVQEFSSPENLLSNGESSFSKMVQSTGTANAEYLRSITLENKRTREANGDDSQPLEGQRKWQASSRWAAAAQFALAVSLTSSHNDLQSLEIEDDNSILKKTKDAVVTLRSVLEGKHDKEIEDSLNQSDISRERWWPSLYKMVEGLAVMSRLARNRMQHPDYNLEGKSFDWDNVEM

CCc1cccc(C)c1N(C(=O)CSC[C@H](NC(=O)CC[C@H](N)C(=O)O)C(=O)NCC(=O)O)C(C)COC (stereo partly shown) [Metolachlor-GS]
MgATP-dependent, uncoupler-insensitive DNP-GS uptake plus compound ([1]; 5 μM gramicidin D, GSH, GSSG 1 mM, GS-conjugates 100 μM): 27.6 ± 0.9 nmol/mg/10 minutes | MgATP-dependent, uncoupler-insensitive DNP-GS uptake as percentage of control ([1]; 5 μM gramicidin D, GSH, GSSG 1 mM, GS-conjugates 100 μM, 10 min): 57.7% | inhibition at 100 µM ([1]; 100 μM compound): ~50% | Vmax for AtMRP1-dependent uptake [2]: 17.5 ± 5.2 nmol/mg/10 min | Vmax for AtMRP1-dependent uptake ([2]; listed as metolachlor-GS): 17.5±5.2 nmol/mg/10 min | Km estimated previously [3]: 40 to 60 µM | MgATP-dependent, uncoupler-insensitive DNP-GS uptake plus compound [4]: 4.8 ± 0.7 nmol/mg/10 minutes | MgATP-dependent, uncoupler-insensitive DNP-GS uptake as percentage of control ([4]; 10 min): 73.8% | Vmax for AtMRP2-dependent uptake [5]: 136.0 ± 28.1 nmol/mg/10 min | Vmax for AtMRP2-dependent uptake ([5]; listed as metolachlor-GS): 136.0±28.1 nmol/mg/10 min
